Marks after values point to notes of the source that are not given here.
Assays:
[1] = tested on: Kaolin-induziertes Pfotenoedem; assay: Kaolin-induced rat paw oedema after dermal administration; type: in vivo, Ratte; details: 10 mg/kg standard acid, esters 12.3-13.2 mg/kg equivalent to 10 mg/kg acid, applied 30 min before and 150 min after kaolin; for % Hemmung 2h: 2 h after kaolin injection; for % Hemmung 4h: 4 h after kaolin injection; for % Hemmung 6h: 6 h after kaolin injection
Source text: (§1) Die entzündungshemmende Wirkung wurde mit ausgewählten Verbindungen jedes Estertyps im Vergleich zum jeweiligen Standard im konventionellen Rattenpfotenoedemtest nach oraler Applikation untersucht. Die Ergebnisse sind in Tab. 3 zusammengefaßt. Weiterhin wurde mit einigen Verbindungen die entzündungshemmende Aktivität nach dermaler Applikation am Kaolin-induzierten Pfotenoedem der Ratte untersucht. Für den Test wurden die Substanzen in einer Mischung aus Ethanol/Aceton/Dimethylacetamid gelöst und im konstanten Volumen 30 Min. vor und 150 Min. nach Injektion von Kaolin (0,1 ml 10%-ige Suspension in Wasser) appliziert. Das Pfotenvolumen wurde 2, 4 und 6 Stunden nach Kaolininjektion gemessen. Die Ergebnisse sind in Tabelle 4 zusammengefaßt.

Pfotenoedem = assay: Rat paw oedema test after oral administration (anti-inflammatory effect); type: in vivo, Ratte
Source text: as §1

| Structure (SMILES) | % Hemmung 2h [1] | % Hemmung 4h [1] | % Hemmung 6h [1] | Hemmeffekt % (Pfotenoedem; 50 mg/kg) [%] | further results |
| --- | --- | --- | --- | --- | --- |
| O=C(O)Cc1ccccc1Nc1c(Cl)cccc1Cl [Diclofenac, 2-[(2,6-Dichlorphenyl)amino]-phenylessigsäure, reference compound] | 0% | 36.2*** % | 37.6*** % | – | Hemmeffekt % (Pfotenoedem; 100 mg/kg): 38% |
| CC(C)(C)COC(=O)Cc1cn(-c2ccccc2)nc1-c1ccc(Cl)cc1 [Beispiel 3, Lonazolacneopentylester] | 18.2* % | 31.6*** % | 34.3*** % | – | – |
| CC(C)(CO)COC(=O)c1ccccc1Nc1cccc(C(F)(F)F)c1 [Beispiel 1, Flufenaminsäureneopentylglykolmonoester] | 2.2% | 23.7*** % | 36.8*** % | 55 | Hemmeffekt % (Pfotenoedem; 25 mg/kg): 38% |
| CC(C(=O)OCC(C)(C)CO)c1cccc(C(=O)c2ccccc2)c1 (centres unmarked) [Beispiel 5] | – | – | – | – | Hemmeffekt % (Pfotenoedem; 10 mg/kg): 33% |
| O=C(O)Cc1cn(-c2ccccc2)nc1-c1ccc(Cl)cc1 [Lonazolac, 3-(4-Chlorphenyl)-1-phenyl-1H-pyrazol-4-essigsäure, reference compound] | 0% | 3.1% | 30.0*** % | – | Hemmeffekt % (Pfotenoedem; 25 mg/kg): 38% |
| CC(C(=O)OCC(=O)OCC(C)(C)C)c1ccc(-c2ccccc2)c(F)c1 (centres unmarked) [Beispiel 4] | – | – | – | – | Hemmeffekt % (Pfotenoedem; 25 mg/kg): 33% |
| CC(C)(C)COC(=O)COC(=O)Cc1cn(-c2ccccc2)nc1-c1ccc(Cl)cc1 [Beispiel 22] | – | – | – | – | Hemmeffekt % (Pfotenoedem; 15 mg/kg): 46% |
| CC(C)Cc1ccc(C(C)C(=O)O)cc1 (centres unmarked) [Ibuprofen, 2-(4-Isobutylphenyl)-propionsäure, reference compound] | – | – | – | 35 | – |
| CC(C)(C)COC(=O)COC(=O)Cc1ccccc1Nc1c(Cl)cccc1Cl [Beispiel 24] | – | – | – | 33 | – |
| CC(C)Cc1ccc(C(C)C(=O)OCC(C)(C)CO)cc1 (centres unmarked) [Beispiel 11] | – | – | – | 47 | – |
| CC(C)Cc1ccc(C(C)C(=O)OCC(C)(C)C)cc1 (centres unmarked) [Beispiel 17] | – | – | – | – | Hemmeffekt % (Pfotenoedem; 25 mg/kg): 43% |
| CC(C(=O)OCC(C)(C)C)c1ccc(-c2ccccc2)c(F)c1 (centres unmarked) [Beispiel 14] | – | – | – | – | Hemmeffekt % (Pfotenoedem; 1 mg/kg): 35% |
| CC(C(=O)O)c1cccc(C(=O)c2ccccc2)c1 (centres unmarked) [Ketoprofen, 2-(3-Benzoylphenyl)-propionsäure, reference compound] | – | – | – | – | Hemmeffekt % (Pfotenoedem; 38 mg/kg): 44% |
| CC(C(=O)OCC(C)(C)CO)c1ccc(C(=O)c2cccs2)cc1 (centres unmarked) [Beispiel 9] | – | – | – | – | Hemmeffekt % (Pfotenoedem; 10 mg/kg): 34%; Hemmeffekt % (Pfotenoedem; 25 mg/kg): 43% |
| CC(C(=O)O)c1ccc(-c2ccccc2)c(F)c1 (centres unmarked) [Flurbiprofen, 2-(2-Fluor-4-biphenylyl)-propionsäure, reference compound] | – | – | – | 40 | – |
| CC(C(=O)O)c1ccc(C(=O)c2cccs2)cc1 (centres unmarked) [Suprofen, 2-[4-(2-Thenoyl)phenyl]-propionsäure, reference compound] | – | – | – | 20 | – |
| CC(C(=O)OCC(C)(C)C)c1ccc(C(=O)c2cccs2)cc1 (centres unmarked) [Beispiel 15] | – | – | – | – | Hemmeffekt % (Pfotenoedem; 5 mg/kg): 37% |
| O=C(O)c1ccccc1Nc1cccc(C(F)(F)F)c1 [Flufenaminsäure, N-(α,α,α-Trifluor-m-tolyl)anthranilsäure, reference compound] | 0% | 19.4** % | 23.2** % | 33 | – |
| CC(C)(C)COC(=O)Cc1ccccc1Nc1c(Cl)cccc1Cl [Beispiel 16] | 19.2* % | 40.1*** % | 43.2*** % | 36 | – |

From EP0335164A2, “Ester derivatives of neopentanol, process for their preparation and their use as medicines” (Merckle GmbH, priority 1988, dated 1989)
